The nature of test [1]: Mouse acute food intake study. The format is in vivo. Conditions: male C57Bl/6 mice, s.c., dose 10 nmol/kg, cumulative food intake at 24 hr vs vehicle. The gist of the method: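 Peptide or vehicle went subcutaneously (5 mL/kg) to 6-8 h-fasted male C57Bl/6 mice shortly before the dark phase, with groups balanced on body weight and 24-hour intake. Cumulative food consumption was derived from 48 h of automated BioDaq monitoring with free food and water access.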

In test [2] the test system is GLP-1R knockout (KO) mice. In words: Glucose change in GLP-1R knockout mice. The settings on record: GLP-1R KO mice, s.c.; for GLP-1R KO % glucose change 120 min: 120 min vs 0 min, somatostatin pretreatment (octreotide) 30 min prior to cpd; for GLP-1R KO % glucose change - 60 min: 60 min vs 0 min, no somatostatin pretreatment. The format is in vivo, mouse. The procedure:
(§1) They acclimated for a minimum of ˜1-2 weeks, and mice were sorted into groups (n=4-8/group) based on body weight. On day of study, mice were fasted briefly for 2 hrs prior to study start. In some studies, mice were pre-treated with octreotide (BaChem, 10 mg/kg) at 30 minutes prior to peptide injection. Glucose was measured via glucometer at various timepoints including-30 min (prior to octreotide when used in studies), 0 min (before peptide dose), 30, 60, 120, 180, 240, and 360 minutes. Since these studies are acute in nature, mice were re-used for multiple studies (no more than 3) and always allowed at least a minimum wash-out period of 1 week.

In the next test the test system is wildtype (WT) mice. Briefly: Glucose change in wildtype mice. The format is in vivo, mouse. Conditions: s.c.; for WT % glucose change 120 min: 120 min vs 0 min, somatostatin pretreatment (octreotide) 30 min prior to cpd; for WT % glucose change 60 min: 60 min vs 0 min, no somatostatin pretreatment. The procedure: as §1, with “GLP-1R knockout (KO) and wildtype (WT) mice at 8-14 weeks of age were singly housed on standard chow diet (Envigo, 2918) and automatic water. They” for “They”

In test [3] the target is human GLP-1 receptor (hGLP-1R) (Homo sapiens, UniProt P43220). Briefly: cAMP production (HTRF) in CHO cells expressing hGLP-1R. The format is cell-based. Conditions: for pEC50: geometric mean, read-out: hGLP-1R EC50; for % Relative Potency Ratio: % GLP-1R activity relative to GLP-1 / % GlucR activity relative to glucagon. On the set-up: expressed in transfected cells. The gist of the method: (§2)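 Cells were resuspended in assay buffer at batch-optimized density, typically 1×10^5 cells/mL for hGLP-1R and 2×10^5 cells/mL for hGCGR. After 30 min incubation at room temperature with compound, cAMP was measured by two-step HTRF. EC50 values came from 4-parameter logistic fits of % Delta F.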
For orientation: Changes in cAMP serve as a functional read-out for many G protein-coupled receptors.

In test [4] the target is human glucagon receptor (hGCGR) (Homo sapiens, UniProt P47871). Briefly: cAMP production (HTRF) in CHO cells expressing hGCGR. The test is classed as cell-based. Further details: expressed in transfected cells. The settings on record: geometric mean, read-out: hGluc-R EC50. The gist of the method: as §2

pEC50: −log10 of the molar value. Where two headings read alike, the source gives them in different places. Starred links: 1 amine or outer side, 2 acyl side, 3 side chain; linkers in the order of their positions; H or OH if unused. Non-standard residues stand in square brackets, D forms with d. Residues, ends and D or L forms follow the SMILES beside them. Groups on a side chain read outwards from the residue. *: point of attachment. C18 diacid = O=C(O)CCCCCCCCCCCCCCCCC(=O)*; Dip = N[C@H](C(=O)O)C(c1ccccc1)c1ccccc1; γGlu = O=C(O)[C@H](CCC(=O)[*:2])N[*:1]; αMeF = C[C@](N)(Cc1ccccc1)C(=O)O; Myristoyl = CCCCCCCCCCCCCC(=O)*; PEG2 = NCCOCCOCCC(=O)O; AEEA = NCCOCCOCC(=O)O; Aib = CC(C)(N)C(=O)O

Sequence of human GLP-1 receptor (hGLP-1R) (P43220 24-463): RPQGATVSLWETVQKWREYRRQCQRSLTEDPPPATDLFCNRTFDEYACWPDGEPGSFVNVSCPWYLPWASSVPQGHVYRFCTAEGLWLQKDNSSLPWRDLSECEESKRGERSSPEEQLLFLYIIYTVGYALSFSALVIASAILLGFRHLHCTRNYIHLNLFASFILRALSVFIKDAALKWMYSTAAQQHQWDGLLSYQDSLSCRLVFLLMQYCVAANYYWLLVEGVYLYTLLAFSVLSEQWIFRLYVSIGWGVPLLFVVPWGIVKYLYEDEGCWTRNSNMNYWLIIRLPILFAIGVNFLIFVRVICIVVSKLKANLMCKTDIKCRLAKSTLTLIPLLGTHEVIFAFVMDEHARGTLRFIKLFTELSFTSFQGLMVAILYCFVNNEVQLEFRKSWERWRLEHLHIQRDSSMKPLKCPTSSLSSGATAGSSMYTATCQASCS
Sequence of human glucagon receptor (hGCGR) (P47871 26-477): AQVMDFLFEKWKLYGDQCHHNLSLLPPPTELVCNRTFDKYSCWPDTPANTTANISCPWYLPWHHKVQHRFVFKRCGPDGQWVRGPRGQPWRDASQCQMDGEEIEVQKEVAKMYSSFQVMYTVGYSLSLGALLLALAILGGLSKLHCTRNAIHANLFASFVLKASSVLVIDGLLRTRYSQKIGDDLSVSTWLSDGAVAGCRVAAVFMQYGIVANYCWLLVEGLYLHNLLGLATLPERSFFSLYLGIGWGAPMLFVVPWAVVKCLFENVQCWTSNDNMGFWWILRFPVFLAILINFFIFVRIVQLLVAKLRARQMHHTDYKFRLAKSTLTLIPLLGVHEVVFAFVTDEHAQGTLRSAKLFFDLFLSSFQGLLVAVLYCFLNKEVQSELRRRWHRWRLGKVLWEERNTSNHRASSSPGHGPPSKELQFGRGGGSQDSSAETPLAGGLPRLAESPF

With `CCCCCCCCCCCCCC(=O)N[C@@H](CCC(=O)N[C@@H](CCC(=O)NCCOCCOCCC(=O)NCCOCCOCCC(=O)NCCCC[C@H](NC(=O)[C@H](CO)NC(=O)[C@H](CC(=O)O)NC(=O)[C@H](CC(C)C)NC(=O)[C@@H](NC(=O)[C@H](CCCCN)NC(=O)[C@H](CO)NC(=O)[C@@H](NC(=O)[C@H](CC(=O)O)NC(=O)[C@H](CO)NC(=O)[C@@H](NC(=O)[C@](C)(Cc1ccccc1)NC(=O)[C@H](CO)NC(=O)CNC(=O)[C@H](CCC(N)=O)NC(=O)[C@H](CO)NC(=O)[C@@H](N)Cc1c[nH]cn1)[C@@H](C)O)C(C)C)C(c1ccccc1)c1ccccc1)C(=O)N[C@@H](C)C(=O)N[C@@H](C)C(=O)N[C@@H](CCC(N)=O)C(=O)N[C@@H](CC(=O)O)C(=O)N[C@@](C)(Cc1ccccc1)C(=O)N[C@H](C(=O)N[C@@H](CCC(=O)O)C(=O)NC(C)(C)C(=O)N[C@H](C(=O)N[C@H](C(=O)N[C@@H](CC(N)=O)C(=O)N[C@H](C(N)=O)[C@@H](C)O)[C@@H](C)CC)[C@@H](C)CC)C(C)C)C(=O)O)C(=O)O` [Peptide 63] (H-HSQGS[αMeF]TSDVSK[Dip]LDSK([PEG2-PEG2-γGlu-γGlu-Myristoyl])AAQD[αMeF]VE[Aib]IINT-NH2; N-terminus assumed), in test [1], the “24 hr % Vehicle Food Intake” value came to 37.9%. Also, the figures for the “GLP-1R KO % glucose change 120 min” value in test [2] (10 nmol/kg) and in test [2] (30 nmol/kg) were 68.2% and 113.0%, respectively. In addition, the “WT % glucose change 120 min” value with wildtype (WT) mice (10 nmol/kg) is −26.4%; in the test on wildtype (WT) mice (30 nmol/kg), −23.8%. Further, the pEC50 in test [3] (Table 6, peptides modified at position 17, cAMP in CHO hGLP-1R cells) was 11.50; in test [4] (Table 6, peptides modified at position 17, cAMP in CHO hGCGR cells), 11.60. Besides, in test [3] (Table 6), the “% Relative Potency Ratio” value was determined as 1.6.

On to `CC[C@H](C)[C@H](NC(=O)[C@H](Cc1c[nH]c2ccccc12)NC(=O)[C@H](CCCCNC(=O)COCCOCCNC(=O)COCCOCCNC(=O)CC[C@H](NC(=O)CCCCCCCCCCCCCCCCC(=O)O)C(=O)O)NC(=O)[C@@H](NC(=O)[C@H](Cc1ccccc1)NC(=O)[C@H](CC(=O)O)NC(=O)[C@H](CCC(N)=O)NC(=O)[C@H](C)NC(=O)[C@H](C)NC(=O)[C@H](CCCNC(=N)N)NC(=O)[C@H](CO)NC(=O)[C@H](CC(=O)O)NC(=O)[C@H](CC(C)C)NC(=O)[C@](C)(Cc1ccccc1)NC(=O)[C@H](CCCCN)NC(=O)[C@H](CO)NC(=O)[C@@H](NC(=O)[C@H](CC(=O)O)NC(=O)[C@H](CO)NC(=O)[C@@H](NC(=O)[C@](C)(Cc1ccccc1)NC(=O)[C@H](CO)NC(=O)CNC(=O)[C@H](Cc1c[nH]cn1)NC(=O)C(C)(C)NC(=O)[C@@H](N)Cc1c[nH]cn1)[C@@H](C)O)C(C)C)C(C)C)C(=O)N[C@@H](C)C(=O)N[C@@H](CC(N)=O)C(=O)N[C@H](C(N)=O)[C@@H](C)O` [Peptide 361] (H-H[Aib]HGS[αMeF]TSDVSK[αMeF]LDSRAAQDFVK([AEEA-AEEA-γGlu-C18 diacid])WIANT-NH2; N-terminus assumed), for which the “24 hr % Vehicle Food Intake” value in test [1] came to 78.8%. The “GLP-1R KO % glucose change 120 min” value in test [2] (10 nmol/kg) turned out to be 91.5%; in test [2] (30 nmol/kg), 93.8%. For the same compound, the “WT % glucose change 120 min” value is on record as −23.0% in the test with wildtype (WT) mice (10 nmol/kg) and −38.1% with wildtype (WT) mice (30 nmol/kg). Moreover, in test [3], the “% Relative Potency Ratio” value is recorded as 1.3. Moreover, the pEC50 is 10.45 in test [3] (cAMP, CHO cells, 0.1% BSA) and 10.63 in test [4] (cAMP, CHO cells, 0.1% BSA).

On to `CC[C@H](C)[C@H](NC(=O)C(C)(C)NC(=O)[C@H](C)NC(=O)[C@@H](NC(=O)[C@](C)(Cc1ccccc1)NC(=O)[C@H](CC(=O)O)NC(=O)[C@H](CCCCNC(=O)COCCOCCNC(=O)COCCOCCNC(=O)CC[C@H](NC(=O)CCCCCCCCCCCCCCCCC(=O)O)C(=O)O)NC(=O)[C@H](C)NC(=O)[C@H](C)NC(=O)[C@H](CCCNC(=N)N)NC(=O)[C@H](CO)NC(=O)[C@H](CC(=O)O)NC(=O)[C@H](CC(C)C)NC(=O)[C@](C)(Cc1ccccc1)NC(=O)[C@H](CCCCN)NC(=O)[C@H](CO)NC(=O)[C@@H](NC(=O)[C@H](CC(=O)O)NC(=O)[C@H](CO)NC(=O)[C@@H](NC(=O)[C@](C)(Cc1ccccc1)NC(=O)[C@H](CO)NC(=O)CNC(=O)[C@H](Cc1c[nH]cn1)NC(=O)C(C)(C)NC(=O)[C@@H](N)Cc1c[nH]cn1)[C@@H](C)O)C(C)C)[C@@H](C)CC)C(=O)N[C@@H](C)C(=O)N[C@@H](CCC(=O)O)C(=O)N[C@H](C(N)=O)[C@@H](C)O` [Peptide 301] (H-H[Aib]HGS[αMeF]TSDVSK[αMeF]LDSRAAK([AEEA-AEEA-γGlu-C18 diacid])D[αMeF]IA[Aib]IAET-NH2; N-terminus assumed), for which the “24 hr % Vehicle Food Intake” value in test [1] was 54.9%. In addition, the “GLP-1R KO % glucose change - 60 min” value in test [2] (10 nmol/kg) amounted to 29.1%; in test [2] (30 nmol/kg) it was 17.9%. Further, the entries for the “WT % glucose change 60 min” value in the test with wildtype (WT) mice (10 nmol/kg) and in the test on wildtype (WT) mice (30 nmol/kg) were −43% and −35.7%, respectively. Besides, the pEC50 in test [3] (Table 7, peptides modified at position 20, cAMP in CHO hGLP-1R cells) was 10.26; in test [4] (Table 7, peptides modified at position 20, cAMP in CHO hGCGR cells), 10.50. Also, in test [3] (Table 7), the “% Relative Potency Ratio” value is listed as 1.1.

As usually defined, the pEC50 is the negative decadic logarithm of the EC50, by convention in mol/L.

The values above are taken from patent publication US20250353891A1 (MEDIMMUNE LIMITED, priority 2022, published 2025).
